Where two headings read alike, the source gives them in different places. Where a SMILES comes first, the peptide text is derived from it. Where no end group is shown, it is not given here.
Experiments:
[1] = tested on: C. albicans CAI4 (IFM 61937); conditions: for IC50: OD650
Method: (§1) Seven microbial strains were used for OsAFP1 antimicrobial activity testing. P. gingivalis ATCC 33277 cells were cultured in modified Gifu anaerobic medium (GAM) (Nissui, Tokyo, Japan) in an anaerobic jar (Mitsubishi Gas Chemical, Tokyo, Japan) in the presence of a deoxygenating regent (AnaeroPack, Mitsubishi Gas Chemical) for 48 h at 37 °C. E. coli K-12 NBRC3301, S. mutans JCM 5705, S. aureus NBRC 12732, and P. acnes JCM 6473 cells were cultured in Luria-Bertani (LB) broth, brain-heart infusion broth (Nissui), trypticase soy broth (BD Biosciences, Franklin Lakes, NJ, USA), and GAM broth (Nissui), respectively, under facultative anaerobic conditions for 4–24 h at 37 °C. C. albicans CAI4 (IFM 61937) cells were cultured in 0.5 × potato dextrose broth (PDB) supplemented with 25 μg/ml of uridine under facultative anaerobic conditions for 14 h at 30 °C. S. cerevisiae BY4742 and S288C cells were cultured in 0.5 × PDB supplemented with 30 μg/ml of uridine, histidine, and lysine and 60 μg/ml of leucine under facultative anaerobic conditions for 14 h at 27 °C. These microbial strains were purchased from the American Type Culture Collection (Manassas, VA, USA), National Institute of Technology and Evaluation (Tokyo, Japan), RIKEN BioResource Center (Tsukuba, Japan), Medical Mycology Research Center (Chiba, Japan), and GE Healthcare (Little Chalfont, UK).
Antifungal assays to determine the MIC of OsAFP1 were performed as follows. Fungal cells (1 × 10^5 cells) were suspended in 100 μl of the appropriate medium containing 0–32 μM OsAFP1 in 96-well Costar cell culture plates. After incubation, OD650 was measured using a plate reader. […] In those cases, the cultures were plated on agar plates (0.5 × PDB), and the peptide concentration at which viable cell numbers were 1% or less than that in the control culture was considered the MIC. GraphPad Prism version 6.00 for Macintosh (GraphPad Software, La Jolla, CA, USA) was used to calculate IC50 values. Experiments were independently repeated at least three times. Detailed growth conditions for each fungus are provided in the “Microorganisms and culture conditions” section above.

[2] = tested on: Streptococcus mutans JCM 5705; experiment: Antibacterial assay (BacTiter-Glo ATP luminescence); assay type: cell-based; conditions: S. mutans JCM 5705; brain-heart infusion broth, 37 °C; 0–32 μM; MIC = >99% reduction of ATP luminescence
Method: as §1
(§2) Recombinant OsAFP1 and its mutants used in this study were prepared as described in “Supplementary Information”. Antibacterial assays to determine the MIC of OsAFP1 were performed using a modified BacTiter-Glo Luminescent cell viability assay kit (Promega, Madison, WI, USA). This assay quantifies ATP in bacterial cultures to determine the number of live cells. All procedures were performed following the manufacturer’s instructions. Briefly, bacterial cells (1 × 10^4 cells/ml) were cultured in 100 μl of the appropriate medium (as specified in the “Microorganisms and culture conditions” section) in the presence of 0–32 μM OsAFP1 in 96-well Costar cell culture plates. After appropriate incubation for 4–40 h, 10 μl of Lucifell ATP-eliminating reagent (Kikkoman, Chiba, Japan) was added to each well to reduce medium-derived ATP and mixed for 10 min using an orbital shaker. The cell culture (50 μl) was mixed gently with BacTiter-Glo reagent (50 μl) in a well of white Optiplate-96 plates. After incubation for 15 s, luminescence at 560 nm was measured using a plate reader. MIC was defined as the minimum concentration of OsAFP1 that reduced the sample ATP luminescence by >99% compared with that of the control culture. Experiments were independently repeated at least three times.

[3] = tested on: Propionibacterium acnes JCM 6473; experiment: as above; assay type: cell-based; conditions: P. acnes JCM 6473; GAM broth, 37 °C; 0–32 μM; MIC = >99% reduction of ATP luminescence
Method: as §1, §2

[4] = tested on: Staphylococcus aureus subsp. aureus NBRC 12732; experiment: as above; assay type: cell-based; conditions: S. aureus NBRC 12732; trypticase soy broth, 37 °C; 0–32 μM; MIC = >99% reduction of ATP luminescence
Method: as §1, §2

[5] = tested on: Porphyromonas gingivalis ATCC 33277; experiment: as above; assay type: cell-based; conditions: P. gingivalis ATCC 33277; modified GAM, anaerobic, 37 °C; 0–32 μM; MIC = >99% reduction of ATP luminescence
Method: as §1, §2

[6] = tested on: Escherichia coli K-12; experiment: as above; assay type: cell-based; conditions: E. coli K-12; LB broth, 37 °C; 0–32 μM; MIC = >99% reduction of ATP luminescence
Method: as §1, §2

[7] = tested on: C. albicans CAI4 cytoplasmic membrane; experiment: PI uptake assay (flow cytometry); assay type: cell-based, Candida albicans; conditions: 4 × IC50 (6 μM melittin, 8 μM OsAFP1, 20 or 24 μM peptide 1, 40 μM peptide 7), 30 °C, 3 h, PI 5 μg/ml, PBS control 0.1 %
Method: C. albicans CAI4 cells (2 × 10^5 cells/ml) were treated with OsAFP1, peptide 1, peptide 7, or melittin at 4 × IC50 concentrations (8 μM for OsAFP1, 24 μM for peptide 1, 40 μM for peptide 7, and 6 μM for melittin[52],[53]) and incubated at 30 °C for 3 h. After the addition of PI (5 μg/ml) and incubation at room temperature in the dark for 30 min, the cells were analysed using a flow cytometer equipped with a 488 nm air-cooled argon laser. At least 10,000 events per sample were recorded. As a negative control, PBS was used instead of antifungal agents, and the mixtures were treated in the same way.

[8] = tested on: C. albicans CAI4 cells; experiment: Fungicidal assay (CFU time course); assay type: cell-based, Candida albicans; conditions: 16 μM (4 × MIC), 30 °C, CFU count, n = 3
Method: C. albicans CAI4 cells (2 × 10^5 cells/ml) were treated with OsAFP1 and incubated at 30 °C for 0, 0.17, 0.5, 1, 2, and 4 h. After being washed three times with KPB, the cells were plated on agar plates (0.5 × PDB). Calculated CFUs in the plate were used as indicators of viable cells. […] Therefore, in the present assay, 4 × MIC concentration was used, because long-term OsAFP1 treatment may produce various undesirable effects other than fungicidal activity and make the assay difficult to interpret. 4 × MIC concentration was also applied in the subsequent annexin V assay and ICC staining analysis.

[9] = tested on: C. albicans CAI4; experiment: Thermal stability (MIC of heat-treated peptide); assay type: cell-based, Candida albicans; conditions: peptide heated at 100 °C for 10 min, 0–8 μM, OD650, n = 3
Method: Antifungal assays to determine the MIC of OsAFP1 were performed as follows. Fungal cells (1 × 10^5 cells) were suspended in 100 μl of the appropriate medium containing 0–32 μM OsAFP1 in 96-well Costar cell culture plates. After incubation, OD650 was measured using a plate reader. […] In some measurements, because of aggregation of medium components, it was difficult to determine MIC values. In those cases, the cultures were plated on agar plates (0.5 × PDB), and the peptide concentration at which viable cell numbers were 1% or less than that in the control culture was considered the MIC. GraphPad Prism version 6.00 for Macintosh (GraphPad Software, La Jolla, CA, USA) was used to calculate IC50 values. Experiments were independently repeated at least three times. Detailed growth conditions for each fungus are provided in the “Microorganisms and culture conditions” section above.
Thermal stability of OsAFP1 was evaluated by comparing the MIC of heat-treated (10 min at 100 °C) peptide to the MIC of untreated peptide.

[10] = tested on: Saccharomyces cerevisiae BY4742; experiment: Antifungal assay (growth inhibition, OD650); assay type: cell-based; conditions: S. cerevisiae BY4742; 0.5 × PDB with supplements, 27 °C, 14 h; MIC = >99% reduction of OD650
Method: as §1, with “These microbial strains were purchased from the American Type Culture Collection (Manassas, VA, USA), National Institute of Technology and Evaluation (Tokyo, Japan), RIKEN BioResource Center (Tsukuba, Japan), Medical Mycology Research Center (Chiba, Japan), and GE Healthcare (Little Chalfont, UK).” left out
(§3) Antifungal assays to determine the MIC of OsAFP1 were performed as follows. […] After incubation, OD650 was measured using a plate reader. […]

[11] = tested on: Saccharomyces cerevisiae S288C; experiment: Antifungal assay (growth inhibition, OD650); assay type: cell-based; conditions: S. cerevisiae S288C; 0.5 × PDB with supplements, 27 °C, 14 h; MIC = >99% reduction of OD650
Method: as §1, with “These microbial strains were purchased from the American Type Culture Collection (Manassas, VA, USA), National Institute of Technology and Evaluation (Tokyo, Japan), RIKEN BioResource Center (Tsukuba, Japan), Medical Mycology Research Center (Chiba, Japan), and GE Healthcare (Little Chalfont, UK).” left out
as §3

[12] = tested on: C. albicans CAI4 cells; experiment: Annexin V assay (apoptosis, epifluorescence microscopy); assay type: cell-based, Candida albicans; conditions: 16 μM (4 × MIC), 30 °C, 0.5 h; epifluorescence microscope
Method: After being washed three times with KPB, the cells were resuspended in 500 μl of 1 × binding buffer and mixed with 5 μl each of annexin V-FITC and PI reagent (BioVision, Mountain View, CA, USA). The mixtures were incubated at room temperature in the dark for 5 min, and the cells were then observed under a TE2000-S epifluorescence microscope (Nikon, Tokyo, Japan) equipped with an appropriate objective lens [CFI Plan Fluor 100 × oil (Nikon)] and bandpass filters with 542 nm excitation and 620 nm emission for PI and 494 nm excitation and 518 nm emission for FITC.

[13] = tested on: Candida species; conditions: existing antifungal drugs; cited from earlier work
Method: In the present study, functional analyses of the antifungal activity of the rice-derived defensin OsAFP1 were performed. […] Since MIC values of the existing antifungal drugs, such as fluconazole, amphotericin B, and caspofungin, are in the 0.01–1 μM range[48], further engineering to enhance its function may be required before OsAFP1 can be used as a drug. On the other hand, OsAFP1 was extremely stable upon heat and serum treatments and exerted its antifungal activity by inducing apop ...

[14] = Table 2, synthetic partial peptides against C. albicans, tested up to 25 μM

CC(C)C[C@H](NC(=O)CNC(=O)[C@H](Cc1c[nH]cn1)NC(=O)[C@H](CO)NC(=O)[C@@H](N)CCCCN)C(=O)N[C@@H](CCC(=O)O)C(=O)N[C@@H](CCCNC(=N)N)C(=O)N[C@@H](CCCCN)C(=O)N[C@@H](CS)C(=O)N[C@@H](Cc1ccccc1)C(=O)O [peptide 7] (H-KSHGLERKCF-OH)
IC50 [1, 14]: 10 µM

OsAFP1: rice defensin (Os02g41904, UniProtKB Q6K209); recombinant mature peptide produced in E. coli, four disulphide bonds (RHCLSQSHRFKGMCVSSNNCANVCRTESFPDGECKSHGLERKCFCKKVC; disulfide (positions not given here); UniProt Q6K209 32-80, looked up)
MIC [2]: >32 µM
MIC [3]: >32 µM
MIC [4]: >32 µM
MIC [5]: >32 µM
MIC [6]: >32 µM
cells stained with PI [7]: 3.6%
MIC ([1]; C. albicans CAI4, 1 × 10^5 cells in 100 μl 0.5 × PDB + 25 μg/ml uridine, 30 °C, 14 h, 0–32 μM, MIC = >99% reduction of OD650, repeated at least three times): 4 µM
IC50 ([1]; read-out: half maximal inhibitory concentration (IC50), C. albicans CAI4 growth, GraphPad Prism, wild-type OsAFP1 (Fig. 1a)): 2 µM
C. albicans cells died ([8]; 30 min): about 50%
C. albicans cells died ([8]; 4 h): almost all cells died
MIC of heat-treated peptide [9]: 8 µM
MIC [10]: 4 µM
MIC [11]: 16 µM
annexin V-FITC fluorescence (early apoptosis) [12]: almost all fungal cells emitted fluorescence

OC(Cn1cncn1)(Cn1cncn1)c1ccc(F)cc1F [fluconazole]
MIC values [13]: 0.01 to 1 µM

CSCC[C@H](NC(=O)CNC(=O)[C@H](CCCCN)NC(=O)[C@H](Cc1ccccc1)NC(=O)[C@H](CCCNC(=N)N)NC(=O)[C@H](Cc1c[nH]cn1)NC(=O)[C@@H](N)CO)C(=O)N[C@@H](CS)C(=O)N[C@H](C(=O)N[C@@H](CO)C(=O)O)C(C)C [compound 2] (H-SHRFKGMCVS-OH)
IC50 [1, 14]: 19 µM

C[C@@H]1[C@H](O)[C@@H](C)/C=C/C=C/C=C/C=C/C=C/C=C/C=C/[C@H](O[C@@H]2O[C@H](C)[C@@H](O)[C@H](N)[C@@H]2O)C[C@@H]2O[C@](O)(C[C@@H](O)C[C@@H](O)[C@H](O)CC[C@@H](O)C[C@@H](O)CC(=O)O[C@H]1C)C[C@H](O)[C@H]2C(=O)O [amphotericin B]
MIC values [13]: 0.01 to 1 µM

CC(C)[C@H](N)C(=O)N[C@@H](CO)C(=O)N[C@@H](CO)C(=O)N[C@@H](CC(N)=O)C(=O)N[C@@H](CC(N)=O)C(=O)N[C@@H](CS)C(=O)N[C@@H](C)C(=O)N[C@@H](CC(N)=O)C(=O)N[C@H](C(=O)O)C(C)C [compound 3] (H-VSSNNCANV-OH)
IC50 [1, 14]: > 25 µM

NCCCC[C@H](NC(=O)[C@H](CS)NC(=O)[C@H](CCC(=O)O)NC(=O)CNC(=O)[C@H](CC(=O)O)NC(=O)[C@@H]1CCCN1C(=O)[C@@H](N)Cc1ccccc1)C(=O)N[C@@H](CO)C(=O)N[C@@H](Cc1c[nH]cn1)C(=O)NCC(=O)O [compound 6] (H-FPDGECKSHG-OH)
IC50 [1, 14]: > 25 µM

C[C@@H](O)[C@H](NC(=O)[C@@H](N)CCCNC(=N)N)C(=O)N[C@@H](CCC(=O)O)C(=O)N[C@@H](CO)C(=O)N[C@@H](Cc1ccccc1)C(=O)N1CCC[C@H]1C(=O)N[C@@H](CC(=O)O)C(=O)NCC(=O)N[C@@H](CCC(=O)O)C(=O)O [compound 5] (H-RTESFPDGE-OH)
IC50 [1, 14]: > 25 µM

caspofungin
MIC values [13]: 0.01 to 1 µM

CC(C)C[C@H](NC(=O)[C@H](CS)NC(=O)[C@H](Cc1c[nH]cn1)NC(=O)[C@@H](N)CCCNC(=N)N)C(=O)N[C@@H](CO)C(=O)N[C@@H](CCC(N)=O)C(=O)N[C@@H](CO)C(=O)N[C@@H](Cc1c[nH]cn1)C(=O)N[C@@H](CCCNC(=N)N)C(=O)N[C@@H](Cc1ccccc1)C(=O)O [peptide 1] (H-RHCLSQSHRF-OH)
IC50 [1, 14]: 6 µM
